Tests used:
[1] = Oral bioavailability study in mice; format: in vivo; details: female CD-1 mice, single IV bolus 1 mg/kg vs oral gavage 3 mg/kg, dose normalized AUC0-∞
Protocol: We compared the oral bioavailability of Compound 75:
(Compound A), which has a thiazolyl moiety in place of the furanyl moiety in Compound 75. Female CD-1 mice treated with a single intravenous bolus (IV; 1 mg/kg) or oral gavage (PO; 3 mg/kg) of one of the compounds. The percent bioavailability (% F) was calculated by dividing the dose normalized area under the plasma concentration curve (AUC0-∞) by the dose normalized IV plasma AUC0-∞.

Myt1 Kinase = target: T1, Myt1 Kinase (Homo sapiens, UniProt Q99640); test: AlphaLISA SureFire Ultra Human Phospho-CDK1 (Thr14) target engagement assay in DAOY cells; format: cell-based; details: 4 h incubation, Cdk1 phosphorylated on threonine 14, read-out: TE Myt1 Kinase (AlphaLISA)
T1 construct: endogenous in cells; host or cells: DAOY medulloblastoma cells (ATCC)
T1 sequence (Q99640 1-499): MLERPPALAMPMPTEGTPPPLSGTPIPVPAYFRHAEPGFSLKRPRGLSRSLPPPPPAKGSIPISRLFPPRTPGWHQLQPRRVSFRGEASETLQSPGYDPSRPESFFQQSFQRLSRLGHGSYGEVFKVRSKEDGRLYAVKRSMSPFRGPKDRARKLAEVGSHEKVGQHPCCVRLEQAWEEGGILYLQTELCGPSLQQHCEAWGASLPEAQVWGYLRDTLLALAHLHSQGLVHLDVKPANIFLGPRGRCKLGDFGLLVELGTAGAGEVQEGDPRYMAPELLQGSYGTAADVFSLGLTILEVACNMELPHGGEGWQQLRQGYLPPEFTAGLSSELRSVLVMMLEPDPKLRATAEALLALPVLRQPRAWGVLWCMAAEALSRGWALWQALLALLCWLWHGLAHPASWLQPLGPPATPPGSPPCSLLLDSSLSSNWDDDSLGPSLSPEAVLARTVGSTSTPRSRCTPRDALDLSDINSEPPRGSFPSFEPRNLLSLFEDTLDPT
Protocol: The following cellular assay was used to determine the extent to which the compounds disclosed herein inhibit phosphorylation of CDK1 at Thr 14.
(§1) DAOY medulloblastoma cell line (ATCC) was cultured in Minimum Essential Medium Eagle supplemented with 10% fetal calf serum (Sigma), 1% Penicillin-Streptomycin and 10 mM HEPES buffer (HyClone). Cell cultures were kept in a humidified incubator at 37° C. and 5% CO2. Cells were routinely tested for Mycoplasma contamination.
For target engagement assessment, quantification of Cdk1 phosphorylated on threonine 14 was detected using the AlphaLISA® SureFire® Ultra™ Human Phospho-CDK1 (Thr14) assay (Perkin Elmer). DAOY cells were seeded into tissue culture 96-well plates (VWR) to a density of 10,000 cells per well. Twenty-four hours post-seeding cells were incubated for 4 h with test compounds at concentrations ranging from 7 to 5000 nM. Cells were washed with PBS and lysed in 50 μl AlphaLISA® lysis buffer before freezing at −80° C. Ten μl of the lysate was transferred to 384 well plates and incubated with AlphaLISA® donor and acceptor beads according to the manufacturer's instructions. Dose response curves and EC50 values were calculated and visualized using GraphPad Prism version 9.

DAOY cells = test: Cell Titer Glo viability assay; format: cell-based; details: Homo sapiens, 144 hours, Cell Titer Glo 2.0
Protocol: as §1
DAOY cells were seeded at a density of 250 cells per well in tissue culture 384 well plates (Corning Costar). After overnight incubation, cells were incubated with test compounds at concentrations ranging from 0.17 to 10,000 nM. Viability compared to untreated control was assessed at 144 hours using Cell Titer Glo® 2.0 Viability Assay (Promega).

[2] = target: T2, recombinant human PMYT-1 (Myt1 kinase) (Homo sapiens, UniProt Q99640); test: LanthaScreen Europium (Eu) Kinase Binding Assay for Myt1 kinase; details: TR-FRET tracer 178 displacement, GST-tagged full length PMYT-1, 60 min, room temperature; mean IC50; read-out: LANTHA Kinase Binding for PMyt1
T2 construct: full length PMYT-1 was expressed by baculovirus in insect cells using a N-terminal GST tag; purchased Invitrogen A30984; host or cells: insect cells (baculovirus)
T2 sequence (Q99640 1-499): T1 sequence (Q99640 1-499)
From the text: We used a LanthaScreen Europium (Eu) Kinase Binding Assay to determine the binding of provided compounds to Myt1 kinase. The assay utilizes an Alexa Fluor 647-labeled ATP competitive kinase tracer that binds to the ATP binding site of a GST-tagged Myt1 kinase, while a europium (Eu) labeled antibody binds to the GST tag. The proximity of fluorescently labeled kinase tracer and europium (Eu) donor fluorophore antibody leads to fluorescence resonance energy transfer (FRET) to the fluorescence label (acceptor) upon excitation of the Eu (donor). Displacement of tracer from the ATP-binding site by a test compound disturbs the proximity between both labels thus lowering the FRET.
This time resolved-FRET binding assay was performed in white 384-well low volume plates (Greiner, cat #784075), at room temperature in kinase buffer A (KBA; Invitrogen cat # PV3189), consisting of 50 mM HEPES-NaOH (pH 7.5), 0.01% Brij-35, 10 mM MgCl2, and 1 mM EGTA. 5 μl of compound (diluted in reaction buffer, to 1% DMSO) were added to various wells in the plate, followed by 5 μl each of recombinant human PMYT-1 (full length PMYT-1 was expressed by baculovirus in insect cells using a N-terminal GST tag (MW: 80.8 kDa) (Invitrogen cat #A30984) and LanthaScreen Eu-anti-GST antibody (Invitrogen, cat #PV5594). After this, 5 μl of kinase tracer 178 (Invitrogen, cat #PV5593) was added to the plate and the plate was incubated for 60 minutes at room temperature. The final assay conditions in each well were: 3 nM tracer 178, 2.5 nM PMYT-1 and 1 nM Eu-labeled antibody in total assay volume of 15 μl. An Envision 2104 (Perkin-Elmer) Plate Reader with the following time-resolve fluorescence setting was used for performing LanthaScreen kinase binding assay. • Excitation 320 nm (30 nm bandpass) • Kinase Tracer Emission 665 nm (10 nm bandpass) • LanthaScreen Eu-anti-Tag Antibody Emission 615 nm (10 nm bandpass) • Dichroic Mirror Instrument dependent • Delay Time 100 μs • Integration Time 200 μs
To calculate the emission ratio, the acceptor/tracer emission ([…]) was divided by the antibody/donor emission ([…]) and the average of duplicate measurement was used for calculations. Data plotting, analysis of binding, and curve fitting was done using Excel add-in XLfit version 5.5.0.5 (IDBS, Guildford, United Kingdom).

SMILES	Bioavailability (% F) [1]	EC50 (Myt1 Kinase)	IC50 [2]	EC50 (DAOY cells)
Cc1ccc(O)c(C)c1-n1nc(-c2cc(-c3ccccn3)co2)c(C(N)=O)c1N [Compound 98, 5-amino-1-(3-hydroxy-2,6-xylyl)-3-[4-(2-pyridyl)-2-furyl]-4-pyrazolecarboxamide]		≤ 250 nM	≤ 10 nM	≤ 500 nM
Cc1ccc(O)c(C)c1-n1nc(-c2ccc(-c3ccncc3)o2)c(C(N)=O)c1N [Compound 99, 5-amino-1-(3-hydroxy-2,6-xylyl)-3-[5-(4-pyridyl)-2-furyl]-4-pyrazolecarboxamide]		≤ 250 nM	≤ 10 nM	> 1000 nM
CC(C)=Cc1coc(-c2nn(-c3c(C)ccc(O)c3C)c(N)c2C(N)=O)c1 [Compound 108, 5-amino-1-(3-hydroxy-2,6-xylyl)-3-[4-(2-methyl-1-propenyl)-2-furyl]-4-pyrazolecarboxamide]		≤ 250 nM	≤ 10 nM	500 to 1000 nM
Cc1ccc(O)c(C)c1-n1nc(-c2cc(C3CC3)co2)c(C(N)=O)c1N [Compound 111, 5-amino-3-(4-cyclopropyl-2-furyl)-1-(3-hydroxy-2,6-xylyl)-4-pyrazolecarboxamide]		≤ 250 nM	10 to 100 nM	500 to 1000 nM
C/C=C/c1coc(-c2nn(-c3c(C)ccc(O)c3C)c(N)c2C(N)=O)c1 [Compound 112, 3-{4-[(E)-1-propenyl]-2-furyl}-5-amino-1-(3-hydroxy-2,6-xylyl)-4-pyrazolecarboxamide]		≤ 250 nM	≤ 10 nM	500 to 1000 nM
Cc1ccc(O)c(C)c1-n1nc(-c2cc(C#CC(C)(C)O)co2)c(C(N)=O)c1N [Compound 113, 5-amino-3-[4-(3-hydroxy-3-methyl-1-butynyl)-2-furyl]-1-(3-hydroxy-2,6-xylyl)-4-pyrazolecarboxamide]		250 to 500 nM	10 to 100 nM	> 1000 nM
CC#Cc1coc(-c2nn(-c3c(C)ccc(O)c3C)c(N)c2C(N)=O)c1 [Compound 114, 5-amino-1-(3-hydroxy-2,6-xylyl)-3-[4-(1-propynyl)-2-furyl]-4-pyrazolecarboxamide]		≤ 250 nM	≤ 10 nM	500 to 1000 nM
COc1ccc2oc(-c3nn(-c4c(C)ccc(O)c4C)c(N)c3C(N)=O)cc2c1 [Compound 115, 5-amino-1-(3-hydroxy-2,6-dimethylphenyl)-3-(5-methoxybenzofuran-2-yl)-1H-pyrazole-4-carboxamide]		≤ 250 nM	≤ 10 nM	500 to 1000 nM
Cc1ccc(O)c(C)c1-n1nc(-c2nccs2)c(C(N)=O)c1N [Compound 122]	32 % F	≤ 250 nM	≤ 10 nM	≤ 500 nM

Second part, led by results:

Bioavailability (% F) [1]	EC50 (Myt1 Kinase)	IC50 [2]	SMILES	EC50 (DAOY cells)
64 % F	≤ 250 nM	≤ 10 nM	Cc1ccc(O)c(C)c1-n1nc(-c2ccco2)c(C(N)=O)c1N [Compound 75, 5-amino-3-(2-furyl)-1-(3-hydroxy-2,6-xylyl)-4-pyrazolecarboxamide]	≤ 500 nM
	≤ 250 nM	≤ 10 nM	C=C(C)c1coc(-c2nn(-c3c(C)ccc(O)c3C)c(N)c2C(N)=O)c1 [Compound 97, 5-amino-1-(3-hydroxy-2,6-xylyl)-3-(4-isopropenyl-2-furyl)-4-pyrazolecarboxamide]	≤ 500 nM
	≤ 250 nM	10 to 100 nM	Cc1ccc(O)c(C)c1-n1nc(-c2ccc(C#N)o2)c(C(N)=O)c1N [Compound 101, 5-amino-3-(5-cyano-2-furyl)-1-(3-hydroxy-2,6-xylyl)-4-pyrazolecarboxamide]	> 1000 nM
	≤ 250 nM	≤ 10 nM	Cc1ccc(O)c(C)c1-n1nc(-c2cc(C(C)C)co2)c(C(N)=O)c1N [Compound 102, 5-amino-1-(3-hydroxy-2,6-xylyl)-3-(4-isopropyl-2-furyl)-4-pyrazolecarboxamide]	≤ 500 nM
	≤ 250 nM	≤ 10 nM	Cc1ccc(O)c(C)c1-n1nc(-c2cccs2)c(C(N)=O)c1N [Compound 119]	500 to 1000 nM
	≤ 250 nM	≤ 10 nM	Cc1ccc(O)c(C)c1-n1nc(-c2ncco2)c(C(N)=O)c1N [Compound 123]	500 to 1000 nM

From patent US20260209208A1, “PHENYL-PYRAZOLE CARBOXAMIDE COMPOUNDS” (Acrivon Therapeutics, Inc., priority 2022, published 2026)
